Experimental data as given in ChEMBL document CHEMBL1641539 (Bioorg Med Chem Lett, 2011).

Columns and labels:
[1] = molecular target: Ephrin type-B receptor 2 (Homo sapiens) (UniProt P29323); assay: Inhibition of human EphB2 at 10 uM after 60 mins by TR-FRET assay; details: values are per cent of control
[2] = molecular target: Tyrosine-protein kinase Fyn (Homo sapiens) (UniProt P06241); assay: Inhibition of human Fyn at 10 uM after 60 mins by TR-FRET assay; details: values are per cent of control
[3] = molecular target: Interleukin-1 receptor-associated kinase 4 (Homo sapiens) (UniProt Q9NWZ3); assay: Inhibition of human IRAK4 at 10 uM after 60 mins by TR-FRET assay; details: values are per cent of control
[4] = molecular target: Tyrosine-protein kinase JAK2 (Homo sapiens) (UniProt O60674); assay: Inhibition of human JAK2 at 10 uM after 60 mins by TR-FRET assay; details: values are per cent of control
[5] = molecular target: MAP kinase-activated protein kinase 2 (Homo sapiens) (UniProt P49137); assay: Inhibition of human MAPKAP-K2 at 10 uM after 60 mins by TR-FRET assay; details: values are per cent of control
[6] = molecular target: Serine/threonine-protein kinase 4 (Homo sapiens) (UniProt Q13043); assay: Inhibition of human MST1 at 10 uM after 60 mins by TR-FRET assay; details: values are per cent of control
[7] = test system: Mitogen-activated protein kinase 14 (Homo sapiens), Q16539 [T106M]; assay: Inhibition of human SAPK2a T106M mutant at 10 uM after 60 mins by TR-FRET assay; details: values are per cent of control
[8] = test system: Epidermal growth factor receptor (Homo sapiens), P00533 [L858R,T790M]; details: 10 uM
Description: Inhibition of human EGFR T790M, L858R mutant at 10 uM after 60 mins by TR-FRET assay

[9] = molecular target: Ribosomal protein S6 kinase alpha-1 (Rattus norvegicus) (UniProt Q63531); assay: Inhibition of rat Rsk1 at 10 uM after 60 mins by TR-FRET assay; values are per cent of control
Rattus norvegicus = species: Rattus norvegicus; assay: Inhibition of rat AMPK at 10 uM after 60 mins by TR-FRET assay; values are per cent of control
[10] = molecular target: Tyrosine-protein kinase HCK (Homo sapiens) (UniProt P08631); assay: Inhibition of human Hck at 10 uM after 60 mins by TR-FRET assay; values are per cent of control
[11] = molecular target: Proto-oncogene tyrosine-protein kinase ROS (Homo sapiens) (UniProt P08922); assay: Inhibition of human Ros at 10 uM after 60 mins by TR-FRET assay; values are per cent of control
[12] = molecular target: Tyrosine-protein kinase ABL2 (Mus musculus) (UniProt Q4JIM5); assay: Inhibition of mouse Arg at 10 uM after 60 mins by TR-FRET assay; values are per cent of control
[13] = molecular target: Tyrosine-protein kinase CSK (Homo sapiens) (UniProt P41240); assay: Inhibition of human CSK at 10 uM after 60 mins by TR-FRET assay; values are per cent of control
[14] = molecular target: Serine/threonine-protein kinase Nek6 (Homo sapiens) (UniProt Q9HC98); assay: Inhibition of human NEK6 at 10 uM after 60 mins by TR-FRET assay; values are per cent of control
[15] = molecular target: BDNF/NT-3 growth factors receptor (Homo sapiens) (UniProt Q16620); assay: Inhibition of human TrkB at 10 uM after 60 mins by TR-FRET assay; values are per cent of control
[16] = molecular target: Death-associated protein kinase 3 (Homo sapiens) (UniProt O43293); assay: Inhibition of human ZIPK at 10 uM after 60 mins by TR-FRET assay; values are per cent of control
[17] = molecular target: Myotonin-protein kinase (Homo sapiens) (UniProt Q09013); assay: Inhibition of human DMPK at 10 uM after 60 mins by TR-FRET assay; values are per cent of control
[18] = molecular target: cAMP-dependent protein kinase catalytic subunit PRKX (Homo sapiens) (UniProt P51817); assay: Inhibition of human PrKX at 10 uM after 60 mins by TR-FRET assay; values are per cent of control
[19] = molecular target: Ephrin type-A receptor 8 (Homo sapiens) (UniProt P29322); assay: Inhibition of human EphA8 at 10 uM after 60 mins by TR-FRET assay; values are per cent of control
[20] = molecular target: Fibroblast growth factor receptor 2 (Homo sapiens) (UniProt P21802); assay: Inhibition of human FGFR2 at 10 uM after 60 mins by TR-FRET assay; values are per cent of control
[21] = molecular target: Fibroblast growth factor receptor 4 (Homo sapiens) (UniProt P22455); assay: Inhibition of human FGFR4 at 10 uM after 60 mins by TR-FRET assay; values are per cent of control
[22] = molecular target: Homeodomain-interacting protein kinase 1 (Homo sapiens) (UniProt Q86Z02); assay: Inhibition of human HIPK1 at 10 uM after 60 mins by TR-FRET assay; values are per cent of control
[23] = molecular target: Homeodomain-interacting protein kinase 2 (Homo sapiens) (UniProt Q9H2X6); assay: Inhibition of human HIPK2 at 10 uM after 60 mins by TR-FRET assay; values are per cent of control
[24] = molecular target: Casein kinase II subunit alpha' (Homo sapiens) (UniProt P19784); assay: Inhibition of human CK2a2 at 10 uM after 60 mins by TR-FRET assay; values are per cent of control
[25] = molecular target: Serine/threonine-protein kinase DCLK2 (Homo sapiens) (UniProt Q8N568); assay: Inhibition of human DCAMKL2 at 10 uM after 60 mins by TR-FRET assay; values are per cent of control
[26] = molecular target: Serine/threonine-protein kinase MRCK beta (Homo sapiens) (UniProt Q9Y5S2); assay: Inhibition of human MRCKbeta at 10 uM after 60 mins by TR-FRET assay; values are per cent of control
[27] = molecular target: Proto-oncogene tyrosine-protein kinase Src (Homo sapiens) (UniProt P12931); assay: Inhibition of human Src (1 to 530) at 10 uM after 60 mins by TR-FRET assay; values are per cent of control
[28] = test system: Angiopoietin-1 receptor (Homo sapiens), Q02763 [R849W]; assay: Inhibition of human Tie2 R849W mutant at 10 uM after 60 mins by TR-FRET assay; values are per cent of control

Chain of Death-associated protein kinase 3 (Homo sapiens) (O43293 whole entry, looked up): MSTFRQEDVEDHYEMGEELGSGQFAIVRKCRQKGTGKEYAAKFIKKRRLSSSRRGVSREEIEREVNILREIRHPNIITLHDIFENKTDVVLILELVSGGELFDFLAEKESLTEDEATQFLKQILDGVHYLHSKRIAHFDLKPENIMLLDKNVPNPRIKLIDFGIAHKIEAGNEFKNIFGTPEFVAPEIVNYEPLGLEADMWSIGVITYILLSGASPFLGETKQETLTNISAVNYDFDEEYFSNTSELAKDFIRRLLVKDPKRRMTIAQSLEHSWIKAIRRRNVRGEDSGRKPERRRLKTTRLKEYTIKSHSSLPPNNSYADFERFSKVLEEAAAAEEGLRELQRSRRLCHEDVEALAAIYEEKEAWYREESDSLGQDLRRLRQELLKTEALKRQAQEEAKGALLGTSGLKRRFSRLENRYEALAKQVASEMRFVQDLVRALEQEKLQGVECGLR
Chain of BDNF/NT-3 growth factors receptor (Homo sapiens) (Q16620 32-822 limits assumed): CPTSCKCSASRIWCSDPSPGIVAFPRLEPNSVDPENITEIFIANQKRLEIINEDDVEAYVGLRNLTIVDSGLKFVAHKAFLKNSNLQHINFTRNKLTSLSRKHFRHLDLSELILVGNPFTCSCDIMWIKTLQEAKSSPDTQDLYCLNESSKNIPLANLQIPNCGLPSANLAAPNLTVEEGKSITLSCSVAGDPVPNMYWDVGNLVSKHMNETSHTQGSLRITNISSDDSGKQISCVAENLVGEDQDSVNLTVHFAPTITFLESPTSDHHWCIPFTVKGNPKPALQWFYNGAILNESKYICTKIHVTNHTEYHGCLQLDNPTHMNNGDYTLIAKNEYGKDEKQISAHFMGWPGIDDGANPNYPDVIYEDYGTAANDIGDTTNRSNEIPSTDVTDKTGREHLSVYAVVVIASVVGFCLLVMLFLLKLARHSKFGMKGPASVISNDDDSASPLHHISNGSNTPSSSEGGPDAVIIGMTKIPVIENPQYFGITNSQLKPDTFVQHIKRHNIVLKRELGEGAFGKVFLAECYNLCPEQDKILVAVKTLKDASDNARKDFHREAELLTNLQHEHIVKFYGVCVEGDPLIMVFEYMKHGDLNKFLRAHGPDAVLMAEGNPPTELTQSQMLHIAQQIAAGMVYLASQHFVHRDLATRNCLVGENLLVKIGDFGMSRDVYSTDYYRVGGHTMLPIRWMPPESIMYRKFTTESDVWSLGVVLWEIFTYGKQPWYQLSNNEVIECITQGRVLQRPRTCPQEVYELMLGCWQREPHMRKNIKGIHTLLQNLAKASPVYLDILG
Chain of Fibroblast growth factor receptor 2 (Homo sapiens) (P21802 22-821 limits assumed): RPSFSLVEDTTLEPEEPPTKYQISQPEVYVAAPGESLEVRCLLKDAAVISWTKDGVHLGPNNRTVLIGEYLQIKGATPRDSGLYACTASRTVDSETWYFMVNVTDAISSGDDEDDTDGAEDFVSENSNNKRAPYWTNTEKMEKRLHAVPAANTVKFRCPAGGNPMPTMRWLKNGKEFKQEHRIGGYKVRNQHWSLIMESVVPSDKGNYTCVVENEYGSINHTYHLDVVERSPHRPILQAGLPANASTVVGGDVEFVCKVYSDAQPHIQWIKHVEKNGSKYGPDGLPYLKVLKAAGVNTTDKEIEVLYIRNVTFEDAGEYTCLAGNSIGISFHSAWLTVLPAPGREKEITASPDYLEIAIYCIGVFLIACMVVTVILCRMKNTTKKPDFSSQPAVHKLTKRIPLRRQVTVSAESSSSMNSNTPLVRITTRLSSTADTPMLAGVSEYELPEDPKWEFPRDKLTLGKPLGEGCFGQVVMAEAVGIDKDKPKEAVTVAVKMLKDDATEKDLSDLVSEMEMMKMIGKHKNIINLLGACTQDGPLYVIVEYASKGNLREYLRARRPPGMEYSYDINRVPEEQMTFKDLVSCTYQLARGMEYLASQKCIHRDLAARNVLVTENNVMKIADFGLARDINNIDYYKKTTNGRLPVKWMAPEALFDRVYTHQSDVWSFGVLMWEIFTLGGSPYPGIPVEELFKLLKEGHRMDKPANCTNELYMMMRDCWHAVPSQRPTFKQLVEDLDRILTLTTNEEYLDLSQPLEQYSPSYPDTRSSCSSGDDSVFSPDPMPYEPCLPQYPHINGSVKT
Chain of Tyrosine-protein kinase JAK2 (Homo sapiens) (O60674 whole entry): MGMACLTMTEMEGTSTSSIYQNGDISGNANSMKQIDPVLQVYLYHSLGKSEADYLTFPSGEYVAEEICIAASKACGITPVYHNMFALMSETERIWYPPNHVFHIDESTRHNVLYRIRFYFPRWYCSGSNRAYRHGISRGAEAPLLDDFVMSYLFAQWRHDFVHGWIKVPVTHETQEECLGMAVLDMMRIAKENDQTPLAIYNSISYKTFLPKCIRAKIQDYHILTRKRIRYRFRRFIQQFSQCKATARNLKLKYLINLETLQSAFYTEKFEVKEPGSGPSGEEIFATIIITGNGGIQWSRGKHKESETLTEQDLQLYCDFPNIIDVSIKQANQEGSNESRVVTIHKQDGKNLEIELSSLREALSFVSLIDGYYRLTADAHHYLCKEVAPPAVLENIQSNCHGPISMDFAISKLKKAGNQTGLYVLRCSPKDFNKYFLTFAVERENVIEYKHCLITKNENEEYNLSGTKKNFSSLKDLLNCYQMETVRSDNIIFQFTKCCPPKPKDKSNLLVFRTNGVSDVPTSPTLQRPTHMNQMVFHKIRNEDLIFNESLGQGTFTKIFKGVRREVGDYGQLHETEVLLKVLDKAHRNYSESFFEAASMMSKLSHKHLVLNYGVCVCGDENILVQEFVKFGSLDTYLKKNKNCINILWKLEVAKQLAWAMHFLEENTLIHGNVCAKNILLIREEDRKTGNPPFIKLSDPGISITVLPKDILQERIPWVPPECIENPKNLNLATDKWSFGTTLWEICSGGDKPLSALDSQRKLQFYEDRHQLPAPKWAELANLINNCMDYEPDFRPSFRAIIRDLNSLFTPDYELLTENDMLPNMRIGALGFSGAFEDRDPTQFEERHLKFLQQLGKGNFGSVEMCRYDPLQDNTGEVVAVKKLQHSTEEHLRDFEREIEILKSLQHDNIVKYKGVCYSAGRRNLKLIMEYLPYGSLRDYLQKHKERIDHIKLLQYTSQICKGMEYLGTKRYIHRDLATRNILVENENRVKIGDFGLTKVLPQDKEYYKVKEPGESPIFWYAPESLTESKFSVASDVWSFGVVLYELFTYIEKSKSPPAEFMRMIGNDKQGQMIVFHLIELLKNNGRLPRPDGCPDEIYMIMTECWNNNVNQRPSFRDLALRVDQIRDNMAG
Chain of Serine/threonine-protein kinase DCLK2 (Homo sapiens) (Q8N568 whole entry): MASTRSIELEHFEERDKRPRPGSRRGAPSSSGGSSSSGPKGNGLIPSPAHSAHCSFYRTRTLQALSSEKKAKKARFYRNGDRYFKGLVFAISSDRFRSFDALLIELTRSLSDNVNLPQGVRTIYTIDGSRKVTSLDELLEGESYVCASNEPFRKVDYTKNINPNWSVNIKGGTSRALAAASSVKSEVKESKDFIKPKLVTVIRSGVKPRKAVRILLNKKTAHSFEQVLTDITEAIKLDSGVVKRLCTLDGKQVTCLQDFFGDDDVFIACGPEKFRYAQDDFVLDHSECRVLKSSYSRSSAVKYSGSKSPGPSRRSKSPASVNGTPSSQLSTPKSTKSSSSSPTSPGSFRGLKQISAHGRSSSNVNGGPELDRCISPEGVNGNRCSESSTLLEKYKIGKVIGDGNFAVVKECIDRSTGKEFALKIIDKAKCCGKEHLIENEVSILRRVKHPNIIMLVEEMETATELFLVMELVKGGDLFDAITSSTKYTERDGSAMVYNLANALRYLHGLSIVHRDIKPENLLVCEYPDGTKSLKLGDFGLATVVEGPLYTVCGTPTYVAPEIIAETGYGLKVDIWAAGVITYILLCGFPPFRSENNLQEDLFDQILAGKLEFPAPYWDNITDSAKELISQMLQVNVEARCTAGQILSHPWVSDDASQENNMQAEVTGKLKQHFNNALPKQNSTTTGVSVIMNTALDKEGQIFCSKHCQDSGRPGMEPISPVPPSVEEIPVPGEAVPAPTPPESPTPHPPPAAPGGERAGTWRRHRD
Chain of Serine/threonine-protein kinase Nek6 (Homo sapiens) (Q9HC98 whole entry): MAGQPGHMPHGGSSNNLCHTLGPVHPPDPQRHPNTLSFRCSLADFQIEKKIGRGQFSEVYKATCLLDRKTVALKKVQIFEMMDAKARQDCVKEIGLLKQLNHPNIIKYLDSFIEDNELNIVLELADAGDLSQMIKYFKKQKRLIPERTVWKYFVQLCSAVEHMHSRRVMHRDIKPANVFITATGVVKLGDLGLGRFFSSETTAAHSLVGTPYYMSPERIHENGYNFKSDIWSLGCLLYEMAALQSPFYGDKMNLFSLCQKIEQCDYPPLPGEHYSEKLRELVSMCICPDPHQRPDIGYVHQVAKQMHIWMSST
Chain of Myotonin-protein kinase (Homo sapiens) (Q09013 whole entry): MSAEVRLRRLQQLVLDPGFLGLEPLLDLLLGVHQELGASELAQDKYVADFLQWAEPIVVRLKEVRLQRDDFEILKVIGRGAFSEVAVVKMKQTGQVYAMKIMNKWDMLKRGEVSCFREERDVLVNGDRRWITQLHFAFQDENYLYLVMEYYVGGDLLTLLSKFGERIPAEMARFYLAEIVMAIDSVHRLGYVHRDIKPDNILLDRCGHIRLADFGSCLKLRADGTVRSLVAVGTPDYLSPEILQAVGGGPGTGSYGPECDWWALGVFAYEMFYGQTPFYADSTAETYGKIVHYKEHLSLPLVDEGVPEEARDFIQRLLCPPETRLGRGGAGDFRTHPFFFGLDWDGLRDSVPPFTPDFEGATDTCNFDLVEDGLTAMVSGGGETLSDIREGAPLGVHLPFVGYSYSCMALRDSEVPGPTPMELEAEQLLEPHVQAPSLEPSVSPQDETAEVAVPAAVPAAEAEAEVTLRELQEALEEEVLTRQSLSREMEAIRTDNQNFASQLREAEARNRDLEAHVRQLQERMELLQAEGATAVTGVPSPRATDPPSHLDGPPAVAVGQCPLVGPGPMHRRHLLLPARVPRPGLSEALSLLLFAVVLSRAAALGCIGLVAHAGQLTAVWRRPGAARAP

residual activity [1]: 105% | residual activity [2]: 116% | residual activity [3]: 114% | residual activity [4]: 110% | residual activity [5]: 106% | residual activity [6]: 112% | residual activity [7]: 104% | inhibition [8]: 88% | residual activity [9]: 103% | residual activity (Rattus norvegicus): 108% | residual activity [10]: 112% | residual activity [11]: 100% | residual activity [12]: 101% | residual activity [13]: 100% | residual activity [14]: 116% | residual activity [15]: 114% | residual activity [17]: 111% | residual activity [18]: 134% | residual activity [19]: 99% | residual activity [20]: 92% | residual activity [21]: 95% | residual activity [22]: 110% | residual activity [23]: 95% | residual activity [24]: 108% | residual activity [25]: 112% | residual activity [26]: 106% | residual activity [27]: 106% | residual activity [28]: 94%
Compound: S=c1[nH]nc(-c2ccncc2)n1-c1ccc2ccccc2c1
residual activity [16]: 103%
